Experiment: Single ascending dose study, safety and tolerability
Format: in vivo, human
Details: for Any study drug related TEAE / Gastrointestinal disorders Diarrhoea / Gastrointestinal disorders Nausea / Gastrointestinal disorders Vomiting / Nervous systems disorders Headache: Normal Healthy Volunteers, 6 subjects; for tolerability: single oral doses 2 to 480 mg in NHV, 40 mg in T2DM subjects
Protocol: Oral doses of IIIa were administered to normal healthy volunteers (NHV) and subjects with type 2 diabetes mellitus (T2DM). A single center, randomized, double-blind, placebo-controlled single ascending dose study was done in both NHV (n=48) and T2DM subjects (n=8). Dose escalation only occurred after review of safety and tolerability data from previous dose levels (n=8/cohort; 2-placebo & 6-IIIa). Dosing of the T2DM cohort was initiated only after the equivalent dose had been administered to NHV and safety data had been reviewed. All subjects were administered IIIa in the morning after an overnight fast with the exception of the NHV in the 40 mg cohort. NHV subjects in the 40 mg cohort initially received IIIa in a fasted state. Following a 3 week washout period, IIIa was readministered after breakfast at 40 mg to determine the effects of food consumption on pharmacokinetics.
This was a single center, randomized, double-blind, placebo-controlled single ascending dose study in both normal healthy volunteers (NHV) (n=48) and subjects with type 2 diabetes mellitus (T2DM) (n=8). All subjects were administered Formula IIIa as a solution formulated with Captisol® after an overnight fast with the exception of the NHV in the 40 mg cohort. The NHV 40 mg cohort initially received Formula IIIa in a fasted state. Following a washout period, subjects received 40 mg Formula IIIa after breakfast to explore the effects of food consumption on pharmacokinetics.
In type 2 diabetes mellitus (T2DM), inappropriately elevated levels of glucagon exacerbate hyperglycemia and its associated complications. Not wishing to be bound to a particular theory, it has been observed that antagonism of glucagon action reduces blood glucose levels and hemoglobin A1c in patients with T2DM. The novel, selective, orally bioavailable glucagon receptor antagonist, Formula IIIa (below), was investigated regarding its pharmacokinetics (PK), safety, and pharmacodynamics (PD) in a first-in-human, ascending, single-dose, double blind, placebo-controlled study in normal healthy (NH) and T2DM subjects (NCT01919684).

[1] = NHV and T2DM subjects, single dose

Q: Which “cases of hypoglycemia (glucose <60 mg/dL)” value [1] does the source give for `Cc1cc(C)c(-c2ccc(NC(=O)[C@H](Cc3ccc(C(=O)NCCS(=O)(=O)O)cc3)c3ccc(-c4ccc(C(C)(C)C)cc4)cc3)cc2)c(C)c1` [IIIa] here?
A: no cases of hypoglycemia

Q: What about the serious adverse events [1] of the same molecule?
A: no serious adverse events

Q: And the “Any study drug related TEAE” value (2 mg)?
A: 0 (0.0)

Q: What about the “Gastrointestinal disorders Diarrhoea” value (2 mg) of the same molecule?
A: 0 (0.0)

Q: And the “Gastrointestinal disorders Nausea” value (2 mg)?
A: 0 (0.0)

Q: What about the “Gastrointestinal disorders Vomiting” value (2 mg) of the same molecule?
A: 0 (0.0)

Q: What about the “Nervous systems disorders Headache” value (2 mg) of the same molecule?
A: 0 (0.0)

Q: What about the “Any study drug related TEAE” value (10 mg) of the same molecule?
A: 1 (16.7)

Q: What about the “Gastrointestinal disorders Diarrhoea” value (10 mg) of the same molecule?
A: 0 (0.0)

Q: What about the “Gastrointestinal disorders Nausea” value (10 mg) of the same molecule?
A: 0 (0.0)

Q: And the “Gastrointestinal disorders Vomiting” value (10 mg)?
A: 0 (0.0)

Q: What about the “Nervous systems disorders Headache” value (10 mg) of the same molecule?
A: 1 (16.7)

Q: What about the “Any study drug related TEAE” value (40 mg) of the same molecule?
A: 0 (0.0)

Q: And the “Gastrointestinal disorders Diarrhoea” value (40 mg)?
A: 0 (0.0)

Q: And the “Gastrointestinal disorders Nausea” value (40 mg)?
A: 0 (0.0)

Q: What about the “Gastrointestinal disorders Vomiting” value (40 mg) of the same molecule?
A: 0 (0.0)

Q: What about the “Nervous systems disorders Headache” value (40 mg) of the same molecule?
A: 0 (0.0)

Q: What about the “Any study drug related TEAE” value (120 mg) of the same molecule?
A: 2 (33.3)

Q: And the “Gastrointestinal disorders Diarrhoea” value (120 mg)?
A: 0 (0.0)

Q: What about the “Gastrointestinal disorders Nausea” value (120 mg) of the same molecule?
A: 0 (0.0)

Q: What about the “Gastrointestinal disorders Vomiting” value (120 mg) of the same molecule?
A: 0 (0.0)

Q: What about the “Nervous systems disorders Headache” value (120 mg) of the same molecule?
A: 2 (33.3)

Q: What about the “Any study drug related TEAE” value (240 mg) of the same molecule?
A: 2 (33.3)

Q: What about the “Gastrointestinal disorders Diarrhoea” value (240 mg) of the same molecule?
A: 0 (0.0)

Q: What about the “Gastrointestinal disorders Nausea” value (240 mg) of the same molecule?
A: 1 (16.7)

Q: What about the “Gastrointestinal disorders Vomiting” value (240 mg) of the same molecule?
A: 0 (0.0)

Q: And the “Nervous systems disorders Headache” value (240 mg)?
A: 1 (16.7)

Q: What about the “Any study drug related TEAE” value (480 mg) of the same molecule?
A: 2 (33.3)

Q: What about the “Gastrointestinal disorders Diarrhoea” value (480 mg) of the same molecule?
A: 1 (16.7)

Q: And the “Gastrointestinal disorders Nausea” value (480 mg)?
A: 1 (16.7)

Q: And the “Gastrointestinal disorders Vomiting” value (480 mg)?
A: 1 (16.7)

Q: What about the “Nervous systems disorders Headache” value (480 mg) of the same molecule?
A: 0 (0.0)

Q: And the “study drug related treatment emergent adverse events (TEAE), NHV vs T2DM subjects” value (single dose)?
A: observed in the NHV but not the T2DM subjects

Q: And the tolerability?
A: well tolerated

Q: And the tolerability (listed as Formula IIIa)?
A: well tolerated and considered safe up to the highest dose tested
